The record followed here is patent US11033535B2, “Oxadiazoles and thiadiazoles as TGF-β inhibitors” (Southern Research Institute, priority 2017, dated 2021).

Each structure is given as a SMILES string.

This experiment has as its target (Homo sapiens, UniProt P07996). Put plainly: Secondary Assay, inhibitory activity of thiadiazole and oxadiazole analogs as TGF-beta inhibitors. In kind it is biochemical. The note with it: Table I. As for the experimental part: A summary of the inhibitory activity of representative thiadiazole analogs (Tables i and ii) and oxadiazole analogs (Table ii) is shown below.
For initial screening, an ELISA-based screening assay was used in which purified human platelet TSP-1 was incubated with compounds and then incubated with recombinant latent TGF-β1 (purchased from R&D Systems). Activity is measured in a commercially available ELISA which detects only active TGF-β (R &D Systems). Activity in the presence of compounds is compared to activity in TSP-1+latent TGF-β samples without inhibitory compounds (Lu et al. (2016) Am J Pathol 186:678-690).
To specifically assess activity of compounds in liver cell specific assays, two different assays were used. In the first, human hepatic stellate cells were incubated overnight in low serum media to condition the media with secreted latent TGF-β. Purified TSP1 either pre-incubated with compounds or not will be added to cultures and then conditioned media harvested to assess TGF-β biological activity using the R&D Systems ELISA as above. Hepatic stellate cells will be purchased from commercial sources. Although hepatic stellate cells are the primary drivers of liver fibrosis, conditions which drive liver fibrosis can induce hepatocyte TSP-1 expression which can then have paracrine effects on controlling TGF-β activation in hepatic stellate cells. Furthermore, TGF-β can negatively impact hepatocyte regeneration following injury. Therefore, the ability of compounds to block TSP-1 activation of latent TGF-β will also be assessed in cultured primary human hepatocytes following the protocol described for the hepatic stellate cells. Similar approaches have successfully been used to screen compounds which inhibit human myeloma cell derived latent TGF-β activation by TSP-1 (Lu et al. (2016) Am J Pathol 186:678-690).

(Homo sapiens, UniProt P07996), sequence (P07996 whole entry): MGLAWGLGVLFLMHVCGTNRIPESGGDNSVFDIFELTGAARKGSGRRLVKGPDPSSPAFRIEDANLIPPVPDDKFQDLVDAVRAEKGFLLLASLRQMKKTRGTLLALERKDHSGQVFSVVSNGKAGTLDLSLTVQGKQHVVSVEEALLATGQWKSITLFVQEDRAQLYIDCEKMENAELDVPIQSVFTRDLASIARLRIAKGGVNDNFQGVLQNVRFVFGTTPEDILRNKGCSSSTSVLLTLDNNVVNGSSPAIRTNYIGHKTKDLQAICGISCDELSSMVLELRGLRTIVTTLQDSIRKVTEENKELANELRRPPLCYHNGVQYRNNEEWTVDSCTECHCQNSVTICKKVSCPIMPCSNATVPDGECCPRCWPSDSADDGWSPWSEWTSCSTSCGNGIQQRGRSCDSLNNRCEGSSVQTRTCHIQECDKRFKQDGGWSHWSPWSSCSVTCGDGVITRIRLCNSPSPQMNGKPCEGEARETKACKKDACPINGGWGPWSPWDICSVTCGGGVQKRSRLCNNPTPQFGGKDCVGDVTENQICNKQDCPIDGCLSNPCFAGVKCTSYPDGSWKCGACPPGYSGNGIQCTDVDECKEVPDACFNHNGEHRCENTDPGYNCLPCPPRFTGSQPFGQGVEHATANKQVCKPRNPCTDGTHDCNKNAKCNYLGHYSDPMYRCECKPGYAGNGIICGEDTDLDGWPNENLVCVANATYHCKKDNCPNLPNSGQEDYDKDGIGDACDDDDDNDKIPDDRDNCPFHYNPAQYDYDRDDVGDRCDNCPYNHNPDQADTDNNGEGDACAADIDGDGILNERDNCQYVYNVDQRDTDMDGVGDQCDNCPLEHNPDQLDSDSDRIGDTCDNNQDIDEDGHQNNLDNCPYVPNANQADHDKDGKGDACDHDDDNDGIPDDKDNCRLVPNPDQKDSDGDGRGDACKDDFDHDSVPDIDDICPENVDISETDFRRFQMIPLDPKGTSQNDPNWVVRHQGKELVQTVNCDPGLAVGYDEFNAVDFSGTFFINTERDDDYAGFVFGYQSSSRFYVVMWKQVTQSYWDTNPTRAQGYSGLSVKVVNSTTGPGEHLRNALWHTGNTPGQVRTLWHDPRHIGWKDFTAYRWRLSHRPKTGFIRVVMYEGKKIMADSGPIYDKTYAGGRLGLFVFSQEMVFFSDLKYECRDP

With `CNCc1ccc(C[C@H](NC(C)=O)c2nnc(-c3cccc(OC(F)(F)F)c3)s2)cc1` [Compound 42140, N-(2-(4-((methylamino)methyl)phenyl)-1-(5-(3-(trifluoromethoxy)phenyl)-1,3,4-thiadiazol-2-yl)ethyl)acetamide], half-maximal inhibition (IC50) was put at 51 nM.
`CC(=O)N[C@@H](Cc1ccc(CN(C)C)cc1)c1nnc(-c2cccc(OC(F)(F)F)c2)s1` [Compound 42320, N-(2-(4-((dimethylamino)methyl)phenyl)-1-(5-(3-(trifluoromethoxy)phenyl)-1,3,4-thiadiazol-2-yl)ethyl)acetamide] gave an IC50 of 2 nM.

For orientation: IC50 means the concentration that gives 50% inhibition. A lower IC50 goes with inhibition by little substance.
